According to patent EP1724268A1, “COMPOUND HAVING TGF-BETA INHIBITORY ACTIVITY AND PHARMACEUTICAL COMPOSITION CONTAINING SAME” (KIRIN BEER KABUSHIKI KAISHA, priority 2004, dated 2005):
Where two headings read alike, the source gives them in different places.

System: TGFβ signal
Test: TGFβ signal inhibitory activity, (SBE)4-Luc reporter in A549 cells (Test Examples 1A and 1B)
Type: cell-based, human
Conditions: Homo sapiens
Method in brief: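 Stable A549 line carrying (SBE)4-Luc Smad3-binding reporter treated with compound plus TGFβ-1 (2 ng/ml) for 4 hr; luciferase read by chemiluminescence. Percent inhibition relative to TGFβ-only and untreated cells, tested at 3 µM and 10 µM, some also at 1 µM.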

[1] = A549, test compound 3 µM, Reference Examples, Table 1B, read-out: TGFβ inhibition rate, %
[2] = A549, test compound 10 µM, Reference Examples, Table 1B, read-out: TGFβ inhibition rate, %
[3] = A549, read-out: TGFβ inhibition rate, %

Row | Structure (SMILES) | inhibition at 3 µM [1] | inhibition at 10 µM [2] | inhibition at 3 µM [3] | inhibition at 10 µM [3]
1 | COc1cc2nccc(Oc3ccc(C)cc3C(=O)CCC3CCCC3)c2cc1OC [Compound r56] | 0% | 84% | – | –
2 | COc1cc2nccc(Oc3ccc(C)cc3C(=O)C3CCCCC3)c2cc1OC [Compound r59] | 65% | 99% | – | –
3 | COc1cc2nccc(Oc3ccc(C)cc3C(=O)c3ccco3)c2cc1OC [Compound r60] | 63% | 98% | – | –
4 | COc1cc2nccc(Oc3ccc(C)cc3C(=O)c3ccno3)c2cc1OC [Compound r61] | 61% | 98% | – | –
5 | COc1cc2nccc(Oc3ccccc3C(=O)c3ccccc3)c2cc1OC [Compound r63] | – | – | 57% | 91%
6 | COc1ccc(C(=O)c2ccccc2)c(Oc2ccnc3cc(OC)c(OC)cc23)c1 [Compound r64] | 67% | 98% | – | –
7 | COc1ccc(C(=O)c2ccc(C)cc2)c(Oc2ccnc3cc(OC)c(OC)cc23)c1 [Compound r65] | 58% | 100% | – | –
8 | CCCCCCCCOc1ccc(C(=O)c2ccccc2)c(Oc2ccnc3cc(OC)c(OC)cc23)c1 [Compound r66] | 22% | 86% | – | –
9 | C=C(C)C(=O)Oc1ccc(C(=O)c2ccccc2)c(Oc2ccnc3cc(OC)c(OC)cc23)c1 [Compound r67] | 4% | 93% | – | –
10 | COc1cc2nccc(Oc3ccc(Cl)cc3C(=O)c3ccccc3)c2cc1OC [Compound r69] | – | – | 100% | –
11 | COc1cc2nccc(Oc3ccc(Br)cc3C(=O)c3ccccc3)c2cc1OC [Compound r70] | 73% | 100% | – | –
12 | COC(=O)c1cc2ccccc2cc1Oc1ccnc2cc(OC)c(OC)cc12 [Compound r79, Methyl 3-[(6,7-Dimethoxy-4-quinolyl)oxy]naphthalene-2-carboxylate] | 97% | 100% | – | –
13 | CCOC(=O)c1ccccc1Oc1ccnc2cc(OC)c(OC)cc12 [Compound r80] | 62% | 95% | – | –
14 | CCOC(=O)c1ccc(Cl)cc1Oc1ccnc2cc(OC)c(OC)cc12 [Compound r81] | 91% | 100% | – | –
15 | CCOC(=O)c1ccc(C)cc1Oc1ccnc2cc(OC)c(OC)cc12 [Compound r82] | 90% | 99% | – | –
16 | CCOC(=O)c1cc(F)ccc1Oc1ccnc2cc(OC)c(OC)cc12 [Compound r83] | 41% | 81% | – | –
17 | CCOC(=O)c1cc(Cl)ccc1Oc1ccnc2cc(OC)c(OC)cc12 [Compound r84] | 84% | 100% | – | –
18 | CCOC(=O)c1cc(Br)ccc1Oc1ccnc2cc(OC)c(OC)cc12 [Compound r85] | 87% | 100% | – | –
19 | CCOC(=O)c1cc(I)ccc1Oc1ccnc2cc(OC)c(OC)cc12 [Compound r86] | 68% | 99% | – | –
20 | CCOC(=O)c1cc(C)ccc1Oc1ccnc2cc(OC)c(OC)cc12 [Compound r87] | 84% | 99% | – | –
21 | CCOC(=O)c1cc(C(C)=O)ccc1Oc1ccnc2cc(OC)c(OC)cc12 [Compound r88] | 70% | 94% | – | –

Row | Structure (SMILES) | inhibition at 3 µM [1] | inhibition at 10 µM [2] | inhibition at 3 µM [3] | inhibition at 10 µM [3]
22 | CCOC(=O)c1cc(-c2ccc(F)cc2F)ccc1Oc1ccnc2cc(OC)c(OC)cc12 [Compound r89] | 20% | 63% | – | –
23 | CCOC(=O)c1cc(-n2cccc2)ccc1Oc1ccnc2cc(OC)c(OC)cc12 [Compound r90] | 54% | 95% | – | –
24 | CCOC(=O)c1cc(OC)ccc1Oc1ccnc2cc(OC)c(OC)cc12 [Compound r91] | 96% | 100% | – | –
25 | CCOC(=O)c1c(C)cccc1Oc1ccnc2cc(OC)c(OC)cc12 [Compound r92] | 25% | 82% | – | –
26 | COc1cc2nccc(Oc3ccccc3C(=O)OC(C)C)c2cc1OC [Compound r93] | 44% | 88% | – | –
27 | CCCOC(=O)c1ccccc1Oc1ccnc2cc(OC)c(OC)cc12 [Compound r94] | 39% | 97% | – | –
28 | CCCOC(=O)c1cc(C(C)=O)ccc1Oc1ccnc2cc(OC)c(OC)cc12 [Compound r95] | 67% | 96% | – | –
29 | CCCOC(=O)c1cc(-c2ccc(F)cc2F)ccc1Oc1ccnc2cc(OC)c(OC)cc12 [Compound r96] | 19% | 65% | – | –
30 | COc1cc2nccc(Oc3ccccc3C(=O)OCC(C)C)c2cc1OC [Compound r97] | 14% | 92% | – | –
31 | CCCCOC(=O)c1ccccc1Oc1ccnc2cc(OC)c(OC)cc12 [Compound r98] | 4% | 93% | – | –
32 | COc1cc2nccc(Oc3ccccc3C(=O)OCCC(C)C)c2cc1OC [Compound r99] | 7% | 92% | – | –
33 | CC/C=C\CCOC(=O)c1ccccc1Oc1ccnc2cc(OC)c(OC)cc12 [Compound r100] | 0% | 82% | – | –
34 | CCCCC(CC)COC(=O)c1ccccc1Oc1ccnc2cc(OC)c(OC)cc12 (stereo not shown) [Compound r101] | 0% | 64% | – | –
35 | COc1cc2nccc(Oc3cc4ccccc4cc3C(=O)Oc3ccccc3)c2cc1OC [Compound r102] | 33% | 95% | – | –
36 | COc1cc2nccc(Oc3ccc(Cl)cc3C(=O)Nc3ccccc3)c2cc1OC [Compound r105] | 17% | 88% | – | –
37 | COc1cc2nccc(Oc3ccc(Cl)cc3C(N)=O)c2cc1OC [Compound r106] | 9% | 80% | – | –
38 | COc1cc2nccc(Oc3ccc(Cl)cc3C(=O)Nc3ccc(Cl)c(Cl)c3)c2cc1OC [Compound r107] | 0% | 82% | – | –
39 | COc1cc2nccc(Oc3ccc(Br)cc3C(=O)Nc3ccc(Cl)cc3)c2cc1OC [Compound r108] | 0% | 73% | – | –
40 | CNC(=O)c1cc(OC)ccc1Oc1ccnc2cc(OC)c(OC)cc12 [Compound r110] | 55% | 93% | – | –
41 | COc1ccc(Oc2ccnc3cc(OC)c(OC)cc23)c(C(=O)NC(C)C)c1 [Compound r111] | 29% | 92% | – | –
42 | COc1ccc(Oc2ccnc3cc(OC)c(OC)cc23)c(C(=O)NC2CCCCC2)c1 [Compound r112] | 44% | 91% | – | –

Row | Structure (SMILES) | inhibition at 3 µM [1] | inhibition at 10 µM [2] | inhibition at 3 µM [3] | inhibition at 10 µM [3]
43 | COc1cc2nccc(Oc3c(Br)cc(Br)cc3C(=O)Nc3ccc(Br)cc3)c2cc1OC [Compound r113] | 0% | 96% | – | –
44 | COc1cc2nccc(Oc3ccc(C)nc3)c2cc1OC [Compound r115, 4-[(6-Methyl-3-pyridyl)oxy]-6,7-dimethoxyquinoline] | 74% | 97% | – | –
45 | COc1cc2nccc(Oc3ccc(C)nc3C(C)=O)c2cc1OC [Compound r117, 1-{[3-(6,7-Dimethoxy-4-quinolyl)oxy]-6-methyl-2-pyridyl}-1-ethanone] | 84% | 98% | – | –
46 | COc1ccc(Oc2ccnc3cc(OC(=O)N4CCOCC4)c(OC)cc23)c(C(C)=O)c1 [Compound r118, 4-(2-Acetyl-4-methoxyphenoxy)-6-methoxy-7-quinolyl 4-morpholine carboxylate] | 97% | 100% | – | –
47 | COc1ccc(Oc2ccnc3cc(OCCCCl)c(OC)cc23)c(C(C)=O)c1 [Compound r121] | 100% | 100% | – | –
48 | CCN(CC)CCOc1cc2nccc(Oc3ccc(C)cc3C(=O)c3ccccc3)c2cc1OC [Compound r125] | 98% | 100% | – | –
49 | COc1cc2c(Oc3ccc(C)cc3C(=O)c3ccccc3)ccnc2cc1OCCN1CCC(CO)CC1 [Compound r126] | 100% | 100% | – | –
50 | COc1cc2c(Oc3ccc(C)cc3C(=O)c3ccccc3)ccnc2cc1OCCN1CCC(N2CCCC2)CC1 [Compound r127] | 99% | 100% | – | –
51 | COc1cc2c(Oc3ccc(C)cc3C(=O)c3ccccc3)ccnc2cc1OCCN1CCNCC1 [Compound r128] | 100% | 100% | – | –
52 | COc1cc2c(Oc3ccc(C)cc3C(=O)c3ccccc3)ccnc2cc1OCCN1CCN(C)CC1 [Compound r129] | 100% | 100% | – | –
53 | COc1cc2c(Oc3ccc(C)cc3C(=O)c3ccccc3)ccnc2cc1OCCN1CCOCC1 [Compound r130] | 90% | 100% | – | –
54 | COc1cc2c(Oc3ccc(C)cc3C(=O)c3ccccc3)ccnc2cc1OCCn1ccnc1 [Compound r131] | 96% | 100% | – | –
55 | COc1cc2c(Oc3ccc(C)cc3C(=O)c3ccccc3)ccnc2cc1OCCCCl [Compound r132] | 72% | 99% | – | –
56 | COc1cc2c(Oc3ccc(C)cc3C(=O)c3ccccc3)ccnc2cc1OCCCNCCO [Compound r133] | 100% | 100% | – | –
57 | CCN(CC)CCCOc1cc2nccc(Oc3ccc(C)cc3C(=O)c3ccccc3)c2cc1OC [Compound r134] | 100% | 100% | – | –
58 | COc1cc2c(Oc3ccc(C)cc3C(=O)c3ccccc3)ccnc2cc1OCCCN1CCC(N2CCCC2)CC1 [Compound r136] | 90% | 100% | – | –
59 | COc1cc2c(Oc3ccc(C)cc3C(=O)c3ccccc3)ccnc2cc1OCCCCCl [Compound r141] | 55% | 89% | – | –
60 | COc1cc2c(Oc3ccc(C)cc3C(=O)c3ccccc3)ccnc2cc1OCCCCN1CCC(CO)CC1 [Compound r144] | 99% | 100% | – | –
61 | COc1cc2c(Oc3ccc(C)cc3C(=O)c3ccccc3)ccnc2cc1OCCCCN1CCC(N2CCCC2)CC1 [Compound r145] | 87% | 100% | – | –
